Assay results from patent publication US10143681B2, “Factor XIa inhibitors” (MERCK SHARP & DOHME CORP., priority 2016, dated 2018).

How the values were obtained:
Human plasma kallikrein = Human plasma kallikrein (Homo sapiens (Human), UniProt P03952); experiment: Kallikrein Assay; format: biochemical; conditions: purified Human plasma kallikrein 0.5 nM, substrate Acetyl-K-P-R-AFC; read-out: P. KLK IC50
Protocol: The effectiveness of a compound of the present invention as an inhibitor of Kallikrein can be determined using a relevant purified serine protease, and an appropriate synthetic substrate. The rate of hydrolysis of the chromogenic or fluorogenic substrate by the relevant serine protease was measured both in the absence and presence of compounds of the present invention. Assays were conducted at room temperature or at 37° C. […] A decrease in the rate of fluorescence change in the presence of inhibitor is indicative of enzyme inhibition. Such methods are known to one skilled in the art. The results of this assay are expressed as the half-maximal inhibitory concentrations (IC50), or the inhibitory constant, Ki.
Kallikrein determinations were made in 50 mM HEPES buffer at pH 7.4 containing 150 mM NaCl, 5 mM CaCl2, and 0.1% PEG 8000 (polyethylene glycol; Fisher Scientific). Determinations were made using purified Human plasma kallikrein at a final concentration of 0.5 nM (Enzyme Research Laboratories) and the synthetic substrate, Acetyl-K-P-R-AFC (Sigma # C6608) at a concentration of […].
Times required to achieve equilibration between enzyme and inhibitor were determined in control experiments. The reactions were performed under linear progress curve conditions and fluorescence increase measured at 405 Ex/510 Em nm. […] IC50 was determined by inflection point from a four parameter logistic curve fit. Ki was calculated using the Cheng Prusoff equation, Ki=IC50/(1+([S]/Km)).

[1] = test system: Human plasma (intrinsic coagulation cascade); experiment: Activated Partial Thromboplastin Time (aPTT) Assay; conditions: concentration that causes a 50% (1.5×) increase of clot time over vehicle
Protocol: Activated partial thromboplastin time (aPTT) is a clotting test that measures the intrinsic coagulation cascade. The test is performed in sodium citrated plasma. Human plasma is made by collecting blood from healthy donors of both genders into Na citrate tubes (Sarstedt coagulation 9NC/10 ml). Blood is centrifuged at 1500×g and the plasma is collected. aPTT is checked on each individual donor and those within the normal range (28-40 seconds) are pooled, aliquoted, and stored at −80 C. Test samples are prepared by spiking inhibitors or vehicle into plasma. These spiked samples are then run on a coagulation analyzer (STA-R Evolution, Stago Diagnostica). In general, the analyzer performs the following steps: Factor XII is activated by addition of ellagic acid (Pacific Hemostasis), and then time to clot is measured after re-calcification of the sample. Inhibition of FXI will cause aPTT clot time to be prolonged. The data is expressed as percent increase over vehicle control clot time and the concentration that causes a 50% (1.5×) percent increase of clot time are reported.

human Factor XIa = human Factor XIa (Homo sapiens (Human), UniProt P03951); experiment: Factor XIa Assay; format: biochemical; conditions: human Factor XIa 0.04 nM, 30 min pre-incubation at 25° C., substrate GPR-AFC; read-out: FXIa IC50
How it was run: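 IC50 values were obtained from four-parameter log(inhibitor)-response fits of % inhibition, then converted to Ki using Cheng-Prusoff. GPR-AFC hydrolysis was read at 400/505 nm after 60 min at 25 °C.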

Sequence of human Factor XIa (P03951 388-625): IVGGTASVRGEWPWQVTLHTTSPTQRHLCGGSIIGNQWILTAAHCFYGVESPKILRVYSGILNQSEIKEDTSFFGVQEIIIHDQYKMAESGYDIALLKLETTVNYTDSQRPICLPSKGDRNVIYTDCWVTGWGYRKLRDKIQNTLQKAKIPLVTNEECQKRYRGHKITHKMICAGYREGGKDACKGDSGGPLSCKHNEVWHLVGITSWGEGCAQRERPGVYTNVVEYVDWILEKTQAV
Sequence of human Factor XIa (P03951 19-387 partner): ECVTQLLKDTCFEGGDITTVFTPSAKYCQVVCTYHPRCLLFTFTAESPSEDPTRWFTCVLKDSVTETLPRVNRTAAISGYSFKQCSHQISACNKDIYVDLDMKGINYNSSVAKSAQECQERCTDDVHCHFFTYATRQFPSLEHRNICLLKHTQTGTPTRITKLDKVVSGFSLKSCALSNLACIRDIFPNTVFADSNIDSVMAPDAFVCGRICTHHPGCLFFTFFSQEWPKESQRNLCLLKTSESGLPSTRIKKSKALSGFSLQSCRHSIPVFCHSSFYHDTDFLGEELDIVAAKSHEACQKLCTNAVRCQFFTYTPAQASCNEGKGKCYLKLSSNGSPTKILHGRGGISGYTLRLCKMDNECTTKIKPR
Sequence of Human plasma kallikrein (P03952 391-638): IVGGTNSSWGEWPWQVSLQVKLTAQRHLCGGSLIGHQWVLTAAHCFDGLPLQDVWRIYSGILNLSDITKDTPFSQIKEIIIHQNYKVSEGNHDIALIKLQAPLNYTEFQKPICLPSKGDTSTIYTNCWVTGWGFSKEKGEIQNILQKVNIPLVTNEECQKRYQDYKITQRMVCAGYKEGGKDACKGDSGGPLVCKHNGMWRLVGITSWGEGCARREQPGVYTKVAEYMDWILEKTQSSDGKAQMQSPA
Sequence of Human plasma kallikrein (P03952 20-390 partner): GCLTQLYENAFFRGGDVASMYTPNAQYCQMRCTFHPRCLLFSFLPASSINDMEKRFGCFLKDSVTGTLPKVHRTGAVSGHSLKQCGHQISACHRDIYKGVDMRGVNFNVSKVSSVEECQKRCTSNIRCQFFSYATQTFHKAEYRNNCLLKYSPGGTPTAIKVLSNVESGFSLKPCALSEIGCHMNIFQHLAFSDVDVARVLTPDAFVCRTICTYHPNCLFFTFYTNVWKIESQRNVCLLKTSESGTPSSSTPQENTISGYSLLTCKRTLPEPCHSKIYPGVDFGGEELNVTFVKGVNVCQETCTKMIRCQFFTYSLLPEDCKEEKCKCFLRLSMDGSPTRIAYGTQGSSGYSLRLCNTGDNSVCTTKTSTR

Row | SMILES | IC50 (Human plasma kallikrein) | aPTT (1.5x) [1] | IC50 (human Factor XIa)
1 | O=C(O)c1ccc(NC(=O)C(CC23CC(C2)C3)c2ccc(-c3c(C(F)F)ccc(Cl)c3F)c[n+]2[O-])cc1F (single isomer, unassigned) [Example 124, 2-(3-(bicyclo[1.1.1]pentan-1-yl)-1-((4-carboxy-3-fluorophenyl)amino)-1-oxopropan-2-yl)-5-(3-chloro-6-(difluoromethyl)-2-fluorophenyl)pyridine 1-oxide] | 4.7 nM | 1.76 µM | –
2 | O=C(O)c1ccc(NC(=O)C(CC2CCC2)c2ccc(-c3c(C(F)F)ccc(Cl)c3F)c[n+]2[O-])cc1F (single isomer, unassigned) [Example 120, 2-(1-((4-carboxy-3-fluorophenyl)amino)-3-cyclobutyl-1-oxopropan-2-yl)-5-(3-chloro-6-(difluoromethyl)-2-fluorophenyl)pyridine 1-oxide] | 2.1 nM | 0.75 µM | –
3 | O=C(O)c1ccc(NC(=O)C(CC2CC2)c2ccc(-c3c(OC(F)F)ccc(Cl)c3F)c[n+]2[O-])cc1F (single isomer, unassigned) [Example 73] | 88 nM | 2.15 µM | –
4 | O=C(O)c1ccc(NC(=O)C(CC2CCC(F)(F)CC2)c2ccc(-c3c(OC(F)F)ccc(Cl)c3F)c[n+]2[O-])cc1 (single isomer, unassigned) [Example 39] | 25 nM | 1.30 µM | –
5 | COc1cc(C(CC2CC2)C(=O)Nc2ccc(C(=O)O)cc2)[n+]([O-])cc1-c1c(OC(F)F)ccc(Cl)c1F (single isomer, unassigned) [Example 71, 2-(1-((4-carboxyphenyl)amino)-3-cyclopropyl-1-oxopropan-2-yl)-5-(3-chloro-6-(difluoromethoxy)-2-fluorophenyl)-4-methoxypyridine 1-oxide] | 11 nM | 1.24 µM | –
6 | COc1cc(C(CC2CC2)C(=O)Nc2ccc(C(=O)O)cc2)[n+]([O-])cc1-c1c(OC(F)F)ccc(Cl)c1F (single isomer, unassigned) [Example 70, 2-(1-((4-carboxyphenyl)amino)-3-cyclopropyl-1-oxopropan-2-yl)-5-(3-chloro-6-(difluoromethoxy)-2-fluorophenyl)-4-methoxypyridine 1-oxide] | 3.3 nM | 0.82 µM | –
7 | O=C(O)c1ccc(NC(=O)C(CC2CC2C(F)(F)F)c2ccc(-c3c(C(F)F)ccc(Cl)c3F)c[n+]2[O-])cc1 (single isomer, unassigned) [Example 88, 2-(1-((4-carboxyphenyl)amino)-1-oxo-3-(2-(trifluoromethyl)cyclo-propyl)propan-2-yl)-5-(3-chloro-6-(difluoromethyl)-2-fluorophenyl)pyridine 1-oxide] | 3.6 nM | 1.43 µM | –
8 | CC1C(C)C1CC(C(=O)Nc1ccc(C(=O)O)cc1)c1ccc(-c2c(OC(F)F)ccc(Cl)c2F)c[n+]1[O-] (single isomer, unassigned) [Example 98, 2-(1-((4-carboxyphenyl)amino)-3-(2,3-dimethylcyclopropyl)-1-oxopropan-2-yl)-5-(3-chloro-6-(difluoromethoxy)-2-fluorophenyl)pyridine 1-oxide] | 11.3 nM | 0.72 µM | –
9 | O=C(O)c1ccc(NC(=O)C(CC2CC(F)(F)C2)c2ccc(-c3c(OC(F)F)ccc(Cl)c3F)c[n+]2[O-])cc1 (racemic) [Example 50, (S)- and (R)-2-(1-((4-carboxyphenyl)amino)-3-(3,3-difluorocyclobutyl)-1-oxopropan-2-yl)-5-(3-chloro-6-(difluoromethoxy)-2-fluorophenyl)pyridine 1-oxide] | 47 nM | 1.33 µM | –
10 | O=C(O)c1ccc(NC(=O)C(CC2CC2C(F)F)c2ccc(-c3c(C(F)F)ccc(Cl)c3F)c[n+]2[O-])cc1 (single isomer, unassigned) [Example 89, 2-(1-((4-carboxyphenyl)amino)-3-(2-(difluoromethyl)cyclopropyl)-1-oxopropan-2-yl)-5-(3-chloro-6-(difluoromethyl)-2-fluorophenyl)pyridine-1-oxide] | 7.1 nM | – | 0.6 nM
11 | C[C@]1(O)CC[C@@H](CC(C(=O)Nc2ccc(C(=O)O)cc2)c2ccc(-c3c(OC(F)F)ccc(Cl)c3F)c[n+]2[O-])CC1 (single isomer, unassigned) [Example 40, 2-(1-((4-carboxyphenyl)amino)-3-((1s,4s)-4-hydroxy-4-methylcyclohexyl)-1-oxopropan-2-yl)-5-(3-chloro-6-(difluoromethoxy)-2-fluorophenyl)pyridine 1-oxide] | 35 nM | – | 3.2 nM
12 | O=C(O)c1ccc(NC(=O)C(CC2CC2)c2ccc(-c3c(C(F)F)ccc(Cl)c3F)c[n+]2[O-])cc1F (single isomer, unassigned) [Example 118, 2-(1-((4-carboxy-3-fluorophenyl)amino)-3-cyclopropyl-1-oxopropan-2-yl)-5-(3-chloro-6-(difluoromethyl)-2-fluorophenyl)pyridine 1-oxide] | 14.6 nM | 0.66 µM | –
13 | O=C(O)c1ccc(NC(=O)C(CC23CC(C2)C3)c2ccc(-c3c(OC(F)F)ccc(Cl)c3F)c[n+]2[O-])cc1 (single isomer, unassigned) [Example 52] | 14 nM | 1.17 µM | –
14 | O=C(O)c1ccc(NC(=O)C(CC2CC2C(F)F)c2ccc(-c3c(C(F)F)ccc(Cl)c3F)c[n+]2[O-])cc1 (single isomer, unassigned) [Example 90, 2-(1-((4-carboxyphenyl)amino)-3-(2-(difluoromethyl)cyclopropyl)-1-oxopropan-2-yl)-5-(3-chloro-6-(difluoromethyl)-2-fluorophenyl)pyridine 1-oxide] | 5.3 nM | – | 1.1 nM
15 | O=C(O)c1ccc(NC(=O)C(CC2CC2C(F)(F)F)c2ccc(-c3c(C(F)F)ccc(Cl)c3F)c[n+]2[O-])cc1 (single isomer, unassigned) [Example 87, 2-(1-((4-carboxyphenyl)amino)-1-oxo-3-(2-(trifluoromethyl)cyclopropyl)propan-2-yl)-5-(3-chloro-6-(difluoromethyl)-2-fluorophenyl)pyridine 1-oxide] | 2.7 nM | 0.92 µM | –
16 | O=C(O)c1ccc(NC(=O)C(CC2CC(F)C2)c2ccc(-c3c(OC(F)F)ccc(Cl)c3F)c[n+]2[O-])cc1 (single isomer, unassigned) [Example 102, 2-(1-((4-carboxyphenyl)amino)-3-(3-fluorocyclobutyl)-1-oxopropan-2-yl)-5-(3-chloro-6-(difluoromethoxy)-2-fluorophenyl)pyridine 1-oxide] | 31.8 nM | 1 µM | –
17 | CC1C(C)C1CC(C(=O)Nc1ccc(C(=O)O)cc1)c1ccc(-c2c(OC(F)F)ccc(Cl)c2F)c[n+]1[O-] (single isomer, unassigned) [Example 99, 2-(1-((4-carboxyphenyl)amino)-3-(2,3-dimethylcyclopropyl)-1-oxopropan-2-yl)-5-(3-chloro-6-(difluoromethoxy)-2-fluorophenyl)pyridine 1-oxide] | 92 nM | 2.78 µM | –
18 | CC1CC1C[C@@H](C(=O)Nc1ccc(C(=O)O)cc1)c1ccc(-c2c(C(F)(F)F)ccc(Cl)c2F)c[n+]1[O-] (single isomer, unassigned) [Example 65] | 51 nM | 1.86 µM | –
19 | O=C(O)c1ccc(NC(=O)C(C[C@H]2CC[C@H](O)CC2)c2ccc(-c3c(OC(F)F)ccc(Cl)c3F)c[n+]2[O-])cc1 (single isomer, unassigned) [Example 35] | 12 nM | 0.39 µM | –
